Results from publication PMC9295568, “Dual Inhibition of Vacuolar-ATPase and TMPRSS2 Is Required for Complete Blockade of SARS-CoV-2 Entry into Cells” (Antimicrobial Agents and Chemotherapy, 2022).
Counter-ions that a name gives are not always drawn. Like-named read-outs stand apart in the source and are kept apart here.

System: endosomal acidification in Vero cells
Assay: cells
Type: cell-based
Details: for inhibition at 40 µM: Chlorocebus sabaeus, read-out: Percent Inhibition (%) of endosomal acidification
Description: Inhibition of endosomal acidification was measured using LysoTracker Red DND-99 (ThermoFisher). […] Data were plotted using Prism 9 (GraphPad).

[1] = Vero cells, 40 μM, singlet (n=1)

| Compound | inhibition at 40 µM [1] [%] | other results |
| --- | --- | --- |
| C=CC(C)(O)CCC=C(C)CCC=C(C)C (mixture of isomers) [NEROLIDOL] | 66 |  |
| CCCCCCCCCc1ccc(O)cc1 [4-NONYLPHENOL] | 79 |  |
| CC(C)c1ccc2c(c1)CC[C@H]1[C@](C)(CN)CCC[C@]21C [18-AMINOABIETA-8,11,13-TRIENE SULFATE] | 67 |  |
| CC(=O)c1ccc2c(c1)N(CCCN(C)C)c1ccccc1S2 [ACEPROMAZINE MALEATE] | 67 |  |
| CC(=O)c1ccc2c(c1)N(CCCN1CCN(CCO)CC1)c1ccccc1S2.O=C(O)/C=C\C(=O)O.O=C(O)/C=C\C(=O)O [ACETOPHENAZINE MALEATE] |  | Percent Inhibition (%) of endosomal acidification [1]: 62% |
| C[n+]1c2cc(N)ccc2cc2ccc(N)cc21.[Cl-] [ACRIFLAVINIUM HYDROCHLORIDE] |  | Percent Inhibition (%) of endosomal acidification [1]: 51% |
| CCCCCCc1ccc(O)cc1O.Nc1c2ccccc2nc2ccccc12 [ACRISORCIN] |  | Percent Inhibition (%) of endosomal acidification [1]: 50% |
| CCCCCCCCCCCCCCCCC(C(=O)O)C(O)(CC(=O)O)C(=O)O (stereo not drawn) [AGARIC ACID] |  | Percent Inhibition (%) of endosomal acidification [1]: 89% |
| CCCCC(CC)CNC(=N)NC(=N)NCCCCCCNC(=N)NC(=N)NCC(CC)CCCC (stereo not drawn) [ALEXIDINE HYDROCHLORIDE] | 95 |  |
| Nc1c2ccccc2nc2ccccc12 [AMINACRINE] | 69 |  |
| CN(C)CCC=C1c2ccccc2CCc2ccccc21 [AMITRIPTYLINE HYDROCHLORIDE] | 53 |  |
| CCOC(=O)C1=C(COCCN)NC(C)=C(C(=O)OC)C1c1ccccc1Cl (stereo not drawn) [AMLODIPINE BESYLATE] | 76 |  |
| C[C@@H]1[C@H](O)[C@@H](C)/C=C/C=C/C=C/C=C/C=C/C=C/C=C/[C@H](O[C@@H]2O[C@H](C)[C@@H](O)[C@H](N)[C@@H]2O)C[C@@H]2O[C@](O)(C[C@@H](O)C[C@@H](O)[C@H](O)CC[C@@H](O)C[C@@H](O)CC(=O)O[C@H]1C)C[C@H](O)[C@H]2C(=O)O [AMPHOTERICIN B] | 60 |  |
| COc1cc(NS(C)(=O)=O)ccc1Nc1c2ccccc2nc2ccccc12 [AMSACRINE] | 87 |  |
| CC(=O)O[C@@H]1CC[C@@]2(C)[C@@H](CC[C@@H]3[C@@H]2CC[C@]2(C)C(=O)CC[C@@H]32)C1 [AN[…]] | 50 |  |
| C[C@@H](O[C@H]1OCCN(Cc2n[nH]c(=O)[nH]2)[C@H]1c1ccc(F)cc1)c1cc(C(F)(F)F)cc(C(F)(F)F)c1 [APREPITANT] | 62 |  |
| CCCCC/C=C\C/C=C\C/C=C\C/C=C\CCCC(=O)O [ARACHIDONIC ACID] | 64 |  |
| COc1ccc(CCN2CCC(Nc3nc4ccccc4n3Cc3ccc(F)cc3)CC2)cc1 [ASTEMIZOLE] | 50 |  |
| CN1CCCC(n2nc(Cc3ccc(Cl)cc3)c3ccccc3c2=O)CC1 (stereo not drawn) [AZELASTINE HYDROCHLORIDE] | 59 |  |
| Cc1c(-c2ccc(O)cc2)n(Cc2ccc(OCCN3CCCCCC3)cc2)c2ccc(O)cc12 [BAZEDOXIFENE ACETATE] | 89 |  |
| CCOC(=O)[C@H](CCc1ccccc1)N[C@H]1CCc2ccccc2N(CC(=O)O)C1=O [BENAZEPRIL HYDROCHLORIDE] | 64 |  |
| CN1[C@@H]2CC[C@H]1C[C@@H](OC(c1ccccc1)c1ccccc1)C2 [BENZTROPINE MESYLATE] | 50 |  |
| CN(C)CCCOc1nn(Cc2ccccc2)c2ccccc12 [BENZYDAMINE HYDROCHLORIDE] | 58 |  |
| CC(C)COCC(CN(Cc1ccccc1)c1ccccc1)N1CCCC1 (stereo not drawn) [BEPRIDIL HYDROCHLORIDE] | 71 |  |

| Compound | inhibition at 40 µM [1] [%] | other results |
| --- | --- | --- |
| C=C(c1ccc(C(=O)O)cc1)c1cc2c(cc1C)C(C)(C)CCC2(C)C [BEXAROTENE] | 64 |  |
| c1ccc(-c2ccc(C(c3ccccc3)n3ccnc3)cc2)cc1 (stereo not drawn) [BIFONAZOLE] | 50 |  |
| O=C(CCCN1CCC(O)(c2ccc(Br)cc2)CC1)c1ccc(F)cc1 [BROMPERIDOL] | 50 |  |
| C[C@@]12C(=O)OC(=O)[C@]1(C)[C@H]1CC[C@@H]2O1 [CANTHARIDIN] | 65 |  |
| CC(C)NCC(O)COc1cccc2[nH]c3ccccc3c12 (stereo not drawn) [CARAZOLOL] | 54 |  |
| COc1ccccc1OCCNCC(O)COc1cccc2[nH]c3ccccc3c12 (stereo not drawn) [CARVEDILOL] | 55 |  |
| CC1=C(O)C(=O)C=C2C1=CC=C1[C@@]2(C)CC[C@@]2(C)[C@@H]3C[C@](C)(C(=O)O)CC[C@]3(C)CC[C@]12C [CELASTROL] | 92 |  |
| CCCCCCCCCCCCCCCC[N+](C)(C)C [CETRIMONIUM BROMIDE] | 79 |  |
| COc1cc(-c2ccc(/N=N/c3ccc4c(S(=O)(=O)O)cc(S(=O)(=O)O)c(N)c4c3O)c(OC)c2)ccc1/N=N/c1ccc2c(S(=O)(=O)O)cc(S(=O)(=O)O)c(N)c2c1O [CHICAGO SKY BLUE] | 54 |  |
| CN(C)CCCN1c2ccccc2Sc2ccc(Cl)cc21 [CHLORPROMAZINE] | 65 |  |
| CN(C)CC/C=C1/c2ccccc2Sc2ccc(Cl)cc21 [CHLORPROTHIXENE HYDROCHLORIDE] | 57 |  |
| C[C@@H](NCCCc1cccc(C(F)(F)F)c1)c1cccc2ccccc12 [CINACALCET HYDROCHLORIDE] | 91 |  |
| CC(C)/N=c1\cc2n(-c3ccc(Cl)cc3)c3ccccc3nc-2cc1Nc1ccc(Cl)cc1 [CLOFAZIMINE] | 80 |  |
| CCN(CC)CCOc1ccc(C(=C(Cl)c2ccccc2)c2ccccc2)cc1 [CLOMIPHENE CITRATE] | 69 |  |
| CN(C)CCCN1c2ccccc2CCc2ccc(Cl)cc21 [CLOMIPRAMINE HYDROCHLORIDE] | 83 |  |
| Cc1cc(C(C#N)c2ccc(Cl)cc2)c(Cl)cc1NC(=O)c1cc(I)cc(I)c1O (stereo not drawn) [CLOSANTEL] | 56 |  |
| CC1CC(OC(=O)C(O)c2ccccc2)CC(C)(C)C1 (stereo not drawn) [CYCLANDELATE] | 52 |  |
| CN1CCC(=C2c3ccccc3C=Cc3ccccc32)CC1 [CYPROHEPTADINE HYDROCHLORIDE] | 67 |  |
| CCCCCCCCCCCCCCCC[N+](C)(C)Cc1ccccc1 [C[…]] | 90 |  |
| C=CC(C1=CC(=O)C=CC1=O)c1ccccc1 (stereo not drawn) [DALBERGIONE] | 85 |  |
| CN(C)[C@@H](CCOc1cccc2ccccc12)c1ccccc1 [DAPOXETINE HYDROCHLORIDE] | 91 |  |
| CNCCCN1c2ccccc2CCc2ccccc21 [DESIPRAMINE HYDROCHLORIDE] | 50 |  |
| Oc1ccc(Cl)cc1Cc1cc(Cl)ccc1O [DICHLOROPHEN] | 86 |  |
| C[C@@H]1CC[C@@]2(OC1)O[C@H]1[C@@H](O)[C@H]3[C@@H]4CC[C@H]5C[C@@H](O[C@@H]6O[C@H](CO)[C@H](O[C@@H]7O[C@H](CO)[C@@H](O)[C@H](O[C@@H]8OC[C@@H](O)[C@H](O)[C@H]8O)[C@H]7O[C@@H]7O[C@H](CO)[C@H](O)[C@H](O[C@@H]8O[C@H](CO)[C@@H](O)[C@H](O)[C@H]8O)[C@H]7O)[C@H](O)[C@H]6O)[C@H](O)C[C@]5(C)[C@H]4CC[C@]3(C)[C@H]1[C@@H]2C [DIGITONIN] | 79 |  |

| Compound | inhibition at 40 µM [1] [%] | other results |
| --- | --- | --- |
| Cc1c(O)c(O)cc2c1CC=C1[C@@]2(C)CC[C@@]2(C)[C@@H]3C[C@](C)(C(=O)O)CC[C@]3(C)CC[C@]12C [DIHYDROCELASTROL] | 96 |  |
| O=C(Nc1ccccc1)OCC(CN1CCCCC1)OC(=O)Nc1ccccc1 (stereo not drawn) [DIPERODON HYDROCHLORIDE] | 54 |  |
| CCN(CC)CCOC(=O)C(c1ccccc1)C1CCCCC1 (stereo not drawn) [DROFENINE HYDROCHLORIDE] | 58 |  |
| CCCCc1oc2ccc(NS(C)(=O)=O)cc2c1C(=O)c1ccc(OCCCN(CCCC)CCCC)cc1 [DRONEDARONE HYDROCHLORIDE] | 85 |  |
| CNCC[C@H](Oc1cccc2ccccc12)c1cccs1 [DULOXETINE HYDROCHLORIDE] |  | inhibition at 40 µM (Vero): 59% |
| Clc1ccc(COC(Cn2ccnc2)c2ccc(Cl)cc2Cl)cc1 (stereo not drawn) [ECONAZOLE NITRATE] | 76 |  |
| CCN(CC)C(C)CN1c2ccccc2Sc2ccccc21 (stereo not drawn) [ETHOPROPAZINE HYDROCHLORIDE] | 70 |  |
| CC(C)=CCC/C(C)=C/CC/C(C)=C/CO [FARNESOL] | 76 |  |
| CC(NCCC(c1ccccc1)c1ccccc1)c1ccccc1 (stereo not drawn) [FENDILINE HYDROCHLORIDE] | 73 |  |
| CNCCC(Oc1ccc(C(F)(F)F)cc1)c1ccccc1 (stereo not drawn) [FLUOXETINE] | 67 |  |
| OCCN1CCN(CCCN2c3ccccc3Sc3ccc(C(F)(F)F)cc32)CC1 [FLUPHENAZINE HYDROCHLORIDE] | 78 |  |
| CC(C)=CCC[C@]1(C)C=Cc2c(O)c3c(c(CC=C(C)C)c2O1)O[C@]12C(=C[C@@H]4C[C@H]1C(C)(C)O[C@@]2(C/C=C(/C)C(=O)O)C4=O)C3=O [GAMBOGIC ACID] | 90 |  |
| CN(C)c1ccc(C(=C2C=CC(=[N+](C)C)C=C2)c2ccc(N(C)C)cc2)cc1 [GENTIAN VIOLET] | 95 |  |
| Cc1cc2c(C(C)C)c(O)c(O)c(C=O)c2c(O)c1-c1c(C)cc2c(C(C)C)c(O)c(O)c(C=O)c2c1O [GOSSYPOL] | 80 |  |
| Cc1ccc(C(C)C)cc2c(C)ccc1-2 [GUAIAZULENE] | 64 |  |
| CCCCC(CC)CN1CN(CC(CC)CCCC)CC(C)(N)C1 (stereo not drawn) [HEXETIDINE] | 84 |  |
| CCN(CC)CCNc1ccc(CO)c2sc3ccccc3c(=O)c12 [HYCANTHONE] | 69 |  |
| COC1=C(OC)C(=O)C(CCCCCCCCCCO)=C(C)C1=O [IDEBENONE] | 63 |  |
| CN(C)CCCN1c2ccccc2CCc2ccccc21 [IMIPRAMINE HYDROCHLORIDE] | 54 |  |
| CC1Cc2ccccc2N1NC(=O)c1ccc(Cl)c(S(N)(=O)=O)c1 (stereo not drawn) [INDAPAMIDE] | 101 |  |
| CC1(C)C=Cc2c(c3c(c4c(=O)c(-c5ccc(O)c(O)c5)coc24)OC(C)(C)CC3)O1 [ISOPOMIFERIN] |  | Percent Inhibition (%) of endosomal acidification [1]: 85% |
| Clc1ccc(C(Cn2ccnc2)OCc2c(Cl)cccc2Cl)c(Cl)c1 (stereo not drawn) [I[…]] | 79 |  |
| C#C[C@]1(O)CC[C@H]2[C@@H]3CCC4=CCCC[C@@H]4[C@H]3CC[C@@]21C [LYNESTRENOL] | 86 |  |
| CNCCCC12CCC(c3ccccc31)c1ccccc12 [MAPROTILINE HYDROCHLORIDE] |  | inhibition at 40 µM (Vero): 60% |
